Assay results from patent US20200255492A1, “LEPTIN PEPTIDES AND THEIR USE FOR TREATING NEUROLOGICAL DISORDERS” (UNIVERSITY OF DUNDEE, priority 2017, published 2020).

Columns and labels:
[1] = tested on: tau in hippocampal neurons; assay: Immunocytochemistry of endogenous tau and tau/PSD-95 co-localization; assay type: cell-based, Sprague-Dawley rats; details: Aβ1-42 1 μM plus leptin/fragment 10 nM or SB216763 100 nM
Protocol: Hippocampal cultures were prepared as previously (Moult et al, 2010). Neonatal Sprague-Dawley rats (1-3 d old) were […] killed by cervical dislocation in accordance with the UK Animals (Scientific Procedures Act) 1986 legislation. Hippocampi were removed, and after washing in HEPES-buffered saline comprising (mM) 135 NaCl; 5 KCl; 1 CaCl2; 1 MgCl2; 10 HEPES; and 25 D-glucose at […], were treated with papain (1.5 mg ml21; Sigma-Aldrich) for 20 min at 37° C. Dissociated cells were plated onto sterile dishes (35 mm diameter; Greiner Bio-One, Kremsmun-ster, Austria) treated with poly-D-lysine (20 μg ml^−1; 1-2 h). Cultures were maintained in serum replacement medium (SR2; Sigma-Aldrich) in a humidified atmosphere of 5% CO2 and […] at 37° C. for up to 2 wk.
Immunocytochemistry was conducted on primary hippocampal cultures (7-14 DIV). Prior to labelling with antibodies, neurons were washed with HBS containing glycine (0.01 mM) and incubated with agents for 1 h at room temperature. Cultures were fixed with 4% paraformaldehyde for 5 min, then permeabilized with 0.1% Triton X-100 for 5 min. To label endogenous tau, neurons were incubated with a rabbit anti-tau (Ab-217; Genscript) primary antibody (1:200 dilution) at room temperature for 30 min, followed by incubation with an Alexa Fluor555 donkey anti-rabbit (1:250, Invitrogen) secondary antibody for an additional 30 min duration. To assess the % co-localisation of tau at synapses, neurons were dual labelled with an antibody against the synaptic marker, PSD-95 (mouse anti-PSD-95; 1:500, Thermo Fisher) followed by application of an Alexa Fluor488 goat anti-mouse secondary antibody (1:500, Invitrogen).
A Zeiss LSM510 confocal microscope was used for image acquisition and analysis. Images were obtained using a 10-s scan speed in single tracking mode or multi-tracking mode for dual labelling experiments. The intensity of immunostaining was measured off-line using Lasersharp software (Zeiss Lasersharp), whereby analysis lines of 50 μm length were drawn along randomly selected dendritic regions. All data were obtained from at least three different cultures from different animals. Imaging conditions including illumination intensity and photomultiplier gains were kept constant between treatments for each experiment. In addition, data were normalised relative to the mean fluorescence intensity obtained from control neurons. For synaptic co-localisation experiments, tau and PSD-95 positive immunostaining were compared. The number of tau-positive sites that co-localized with PSD-95 positive sites were counted and expressed as a percentage of total positive sites (peaks of intensity).

[2] = tested on: differentiated human neural cells (SH-SY5Y); assay: LDH release assay (membrane leakage, cell death); assay type: cell-based; details: 10 μM Aβ1-42; for reduction of LDH release compared with Aβ1-42 alone, hexamer study: 10 nM, n=11
Protocol: (§1) The human neuroblastoma cell line, SH-SY5Y (ECACC, UK) was maintained in Dulbecco's Modified Eagle Medium supplemented with glucose ([…]) and 10% (v/v) cosmic calf serum (Fisher Scientific, UK) at 37° C. in a humidified atmosphere of 5% CO2, 95% air and allowed to reach 70-80% confluence before seeding. Cells (passage 10-18) were plated at 10 000 cells per well in 96 well tissue culture plates (Nunc, VWR, UK) and at a density of 2×10^5 cells in 35 mm dishes for protein extraction. To induce differentiation, cells were cultured in DMEM supplemented with glucose ([…]), 1% (v/v) cosmic calf serum and 10 μM retinoic acid for 5 days. Thereafter they were incubated in DMEM supplemented with glucose ([…]), serum replacement 2 (2%; Sigma, UK) and 18 μM 5-fluorodeoxyuridine to inhibit proliferation of undifferentiated cells. The 50% of the medium was changed every 2-3 days and pharmacological treatment was carried out 7 days after switching to this medium. Reagents used were (from Sigma UK unless stated) 0.1-10 nM human leptin and leptin (116-130); 0.1-10 nM leptin (22-56; Bachem; Switzerland); 10 nM leptin (116-121) leptin (117-122), leptin (124-129) or leptin (125-130; all Severn Biotech, UK); 5 μM copper chloride; […], 5 μM WP1066 or 50 nM wortmannin. All treatments were added to the culture at the same time and survival assays were carried out after 96 h treatment. Protein samples for signaling ELISA were extracted 3 h after exposure to the relevant reagents and for biomarker expression after 72 hours.
(§2) The concentration of lactate dehydrogenase (LDH) in the culture medium or the mitochondrial activity within cells was used to monitor the level of cell death, as previously (Oldreive and Doherty 2010). In certain experiments, a Crystal violet assay was used to assess total cell number. Cells were fixed in neutral buffered formalin and washed 3 times in PBS prior to staining with 0.01% crystal violet acetate for 5 min. Plates were washed 5-10 times in dH2O and cells solubilised in 100 μl dimethyl sulfoxide (DMSO) before reading the absorbance on a Biohit BP100 plate reader. For all assays, data is expressed as percentage relative to control, untreated wells to normalize for differences in plating density between individual experiments.
To determine whether leptin (116-130) has neuroprotective actions, the effects of leptin (116-130) on the viability of differentiated human neural cells (SH-SY5Y) was examined after exposure to either 5 μM CuCl2 or 10 μM Aβ1-42. Cells were treated with the toxin alone or with a range of concentrations (10-0.1 nM) of leptin or leptin (116-130). […] Thus like leptin, treatment with leptin (116-130) reduces neuronal death in response to AD-linked toxins in vitro.

[3] = tested on: phosphorylated tau (p-tau); assay: ELISA of phosphorylated tau relative to α-tubulin; assay type: cell-based, human; details: 10 nM; n=5
Protocol: as §1
Protein from cultures was extracted into 500 μl Tris-buffered saline containing protease inhibitor cocktail, and a Bradford assay used to determine protein concentration. Samples were diluted to give equal loading onto ELISA plates. Commercially available ELISA kits were used in accordance with the manufacturer's instructions to determine the ratio of pan-STAT3 to phospho-STAT3 (Sigma, UK) and pan-Akt to phospho-Akt (Sigma, UK) and the levels of alpha-tubulin and phosphorylated tau (Sigma, UK). Each protein sample was run in duplicate using samples derived from at least 5 biological repeats.
Hyper-phosphorylation of tau is the underpinning mechanism of the development of neurofibrillary tangles—one of the key pathological feature of AD. Human SH-SY5Y neuronal cells were exposed to Aβ1-42 alone or in combination with 10 nM leptin, leptin (116-130), leptin (116-121), leptin (117-122), leptin (124-129) or leptin (125-130). Protein was extracted for ELISA assay and the ratio of p-tau to the house-keeping protein α-tubulin determined (FIG. 11C). […] Thus for Aβ1-42-treated cells, 10 nM leptin and 10 nM leptin (116-130) reduced p-tau expression by 56.2±8.0% and 58.9+4.6% respectively compared with Aβ1-42 alone (n=5; P<0.001; FIG. 11C); an effect that was mirrored by 10 nM leptin (116-121) and leptin (117-122); 58.1±4.0% and 45.48±6.1% (n=5; P<0.001 and P<0.01 respectively; FIG. 11C), but not by 10 nM leptin (124-129) or leptin (125-130)(n=5; P>0.5; FIG. 11C).

acute hippocampal slices = assay: HFS-induced LTP with leptin hexamers; assay type: cell-based, Sprague Dawley rats; details: 10 nM for 50 min prior to HFS; control LTP 117±10.8% / 125±4.9%
Protocol: Parasagittal hippocampal slices (300 μm) were prepared from either P13-21 or 12-24-week-old male Sprague Dawley rats as previously (Moult et al. 2010). Brains were rapidly removed and placed in ice-cold artificial CSF (aCSF; bubbled with 95% O2 and 5% CO2) containing the following (in mm): 124 NaCl, 3 KCl, 26 NaHCO3, 1.25 NaH2PO4, 2 CaCl2, 1 MgSO4, and 10 d-glucose. Once prepared, parasagittal slices were allowed to recover at room temperature in oxygenated aCSF for 1 h before use. Slices were transferred to a submerged chamber maintained at room temperature and perfused with artificial cerebrospinal fluid at 2 ml min^−1. Standard extracellular recordings were used to monitor evoked field excitatory postsynaptic potentials (fEPSP) from stratum radiatum. The Schaffer collateral-commissural pathway was stimulated (constant voltage; 0.1 ms) at 0.033 Hz, using a stimulus intensity that evoked a peak amplitude ˜50% of the maximum. Synaptic potentials were low pass filtered at 2 kHz and digitally sampled at 10 kHz. The fEPSP slope was measured and expressed relative to baseline. Synaptic records are the average of 4 consecutive responses and stimulus artefacts are blanked for clarity. Recordings were made using an Axopatch 200B amplifier and analyzed using LTP v2.4 software. In synaptic plasticity studies, the degree of potentiation was calculated 30-35 min after HFS and expressed as a percentage of baseline±standard error of mean (SEM).
To determine if the leptin hexamers influence the magnitude of activity-dependent synaptic plasticity, standard extracellular recording techniques were used to assess the effects of leptin (116-121, 117-122, 118-123, 120-125, 124-129 and 125-130) on the magnitude of LTP induced by high frequency stimulation (100 Hz, 1 s) in acute hippocampal slices. […] In parallel studies, application of leptin (118-123; 158±3.8%; n=7; p<0.05; FIG. 8) or leptin (120-125; to 163±8.8% of baseline; n=5; p<0.05) also facilitated LTP, compared to control LTP (FIG. 8).

[4] = tested on: GluA1 surface expression in cultured hippocampal neurons; assay: Surface labelling of AMPA receptor subunit GluA1 (immunocytochemistry); assay type: cell-based, Sprague Dawley rats; details: for GluA1 surface expression, hexamer study: 10 nM, 15 min
[5] = tested on: differentiated SH-SY5Y human neuronal cells; assay: MTT assay of mitochondrial activity (cell viability); assay type: cell-based; details: 10 nM; n=11
Protocol: as §1, §2
To confirm the findings of the LDH assay, cells were treated with Aβ1-42 alone or with a 10 nM of leptin, leptin (116-130) or the listed hexamers, and mitochondrial activity, as a measure of cell viability, determined by MTT assay. A significant increase in mitochondrial activity was detected following treatment with either leptin or leptin (116-130; both 10 nM). […] Thus for Aβ1-42-treated cells, 10 nM leptin and 10 nM leptin (116-130) increased mitochondrial activity by 32.6±5.2% and 40.9+5.8% respectively compared with Aβ1-42 alone (n=11; P<0.001; FIG. 11B); an effect that was mirrored by 10 nM leptin (116-121) and leptin (117-122); 43.61±3.9% and 40.5±3.7*% (n=11; P<0.001; FIG. 11B), but not by 10 nM leptin (124-129) or leptin (125-130) (n=11; P>0.5; FIG. 11B). This reinforces the findings from the LDH assay that similar to either leptin or leptin (116-130), treatment with leptin (116-121) or leptin (117-122) reduces neuronal death in response to AD-linked toxins in vitro.

Row | Molecule | magnitude of LTP after HFS (100 Hz, 1 s) (acute hippocampal slices) | GluA1 surface expression, hexamer study [4] | other results
1 | Cn1cc(C2=C(c3ccc(Cl)cc3Cl)C(=O)NC2=O)c2ccccc21 [SB216763, reference compound] | – | – | % co-localization of tau and PSD-95 in Aβ1-42-treated neurons [1]: decreased % tau/PSD-95 co-localization; relative tau intensity in Aβ1-42-treated neurons [1]: mirrors the effects of leptin
2 | C[C@H](NC(=O)/C(C#N)=C/c1cccc(Br)n1)c1ccccc1 [WP1066, reference compound] | – | – | effect of inhibitor on leptin (116-130)-mediated neuroprotection (LDH) ([2]; WP1066 5 μM, wortmannin 50 nM): prevented leptin (116-130)-mediated neuroprotection
3 | GLQKPE (listed as Mus musculus) [leptin (124-129)] | 137±5.6 % of baseline | 89±6 % of control | reduction of p-tau expression compared with Aβ1-42 alone [3]: did not; increase in mitochondrial activity compared with Aβ1-42 alone [5]: did not; reduction of LDH release compared with Aβ1-42 alone, hexamer study [2]: did not
4 | LQKPES (SCHLPWASGL; listed as Homo sapiens) [leptin (125-130)] | 137±2.4 % of baseline | 98±5 % of control | reduction of p-tau expression compared with Aβ1-42 alone [3]: did not; increase in mitochondrial activity compared with Aβ1-42 alone [5]: did not; reduction of LDH release compared with Aβ1-42 alone, hexamer study [2]: did not
5 | PQTSGL (listed as Mus musculus) [leptin (120-125)] | 163±8.8 % of baseline | increased the surface expression of GluA1 | –
6 | SLPQTS (listed as Mus musculus) [leptin (118-123)] | 158±3.8 % of baseline | increased the surface expression of GluA1 | –
7 | bisperoxovanadium [bpV, reference compound] | – | – | GluA1 surface expression, agent alone (PTEN study) ([4]; bpV 50 nM, 30 min): 148±8 % of control
8 | leptin (121-126): leptin fragment amino acids 121-126 (WASGLE; UniProt P41159 121-126, looked up, fragment) | – | failed to significantly alter the surface expression of GluA1 | –
9 | leptin (122-128): leptin fragment amino acids 122-128 (ASGLETL; UniProt P41159 122-128, looked up, fragment) | – | failed to significantly alter the surface expression of GluA1 | –
